Experimental data published in ChEMBL document CHEMBL1156434, “A nonpeptidic agonist of glucagon-like peptide 1 receptors with efficacy in diabetic db/db mice” (Proc Natl Acad Sci U S A, 2007).
Calls of active or inactive are those of the source. The rule behind the calls is not given here.

Legend:
Mus musculus [1] = test: Decrease in food intake in ip dosed C57BL/6-m+/+Leprdb mouse; type: functional; design: scale not given: the % may be the effect or the level left
Mus musculus [2] = species on record: Mus musculus; test: Effect on glycemia in C57BL/6-m+/+Leprdb mouse assessed as HbA1c normalization at 2 mg; type: functional, organism-based
Mus musculus [3] = species on record: Mus musculus; test: Effect on glycemia in C57BL/6-m+/+Leprdb mouse assessed as HbA1c normalization at 1 mg; type: functional, organism-based
Mus musculus [4] = species on record: Mus musculus; test: Decrease in total cholesterol in C57BL/6-m+/+Leprdb mouse at 2 mg; type: functional, organism-based
[5] = molecular target: T1, Glucagon-like peptide 1 receptor (Rattus norvegicus, UniProt P32301); test: (§1) Agonist activity at rat GLP1 receptor expressed in HEK293 cells assessed as cAMP release; type: functional, cell-based
T1 sequence (P32301 whole entry): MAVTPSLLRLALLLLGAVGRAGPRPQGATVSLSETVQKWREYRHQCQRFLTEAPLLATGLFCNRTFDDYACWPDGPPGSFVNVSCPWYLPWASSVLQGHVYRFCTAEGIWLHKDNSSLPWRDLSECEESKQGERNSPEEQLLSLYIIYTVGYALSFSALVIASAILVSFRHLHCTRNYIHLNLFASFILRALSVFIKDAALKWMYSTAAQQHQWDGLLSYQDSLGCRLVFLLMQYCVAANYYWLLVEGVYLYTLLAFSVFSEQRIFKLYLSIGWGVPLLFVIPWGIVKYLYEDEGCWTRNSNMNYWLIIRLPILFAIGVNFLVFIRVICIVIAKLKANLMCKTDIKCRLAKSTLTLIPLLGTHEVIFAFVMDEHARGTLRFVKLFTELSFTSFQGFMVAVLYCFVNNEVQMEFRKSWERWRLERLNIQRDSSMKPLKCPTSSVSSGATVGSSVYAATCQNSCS

Mus musculus [6] = test: Reversal of suppression of food intake in po dosed C57BL/6 mouse after 2 hrs in presence of exendin; type: functional, organism-based
Mus musculus [7] = species on record: Mus musculus; test: Toxicity in C57BL/6 mouse treated upto 6 weeks; type: organism-based; conditions: in vivo, 1008 h
Mus musculus [8] = species on record: Mus musculus; test: Effect on glycemia in C57BL/6-m+/+Leprdb mouse assessed as fasting glucose normalization at 1 mg; type: functional, organism-based
[9] = Induction of glucose-induced insulin release in Sprague-Dawley rat islets at 10 uM relative to control; type: functional
HEK293 = test: Toxicity in HEK293 cells upto 300 uM by MTT assay; type: cell-based; conditions: human
Mus musculus [10] = test: Suppression of food intake in C57BL/6 mouse at 2 mg, ip after 12 hrs; type: functional
[11] = molecular target: T2, Glucagon-like peptide 1 receptor (Rattus norvegicus) (UniProt P32301); test: Reversal of agonist activity at rat GLP1 receptor expressed in HEK293 cells assessed as luciferase activity at 0.05 uM in presence of exendin; type: functional, cell-based
T2 sequence (whole entry): T1 sequence (P32301 whole entry)

Mus musculus [12] = species on record: Mus musculus; test: Decrease in high density lipoprotein in C57BL/6-m+/+Leprdb mouse at 2 mg; type: functional, organism-based
[13] = molecular target: T2, Glucagon-like peptide 1 receptor (Rattus norvegicus); test: Reversal of agonist activity at rat GLP1 receptor expressed in HEK293 cells assessed as luciferase activity at 10 uM in presence of exendin; type: functional, cell-based
Mus musculus [14] = test: Decrease in HbA1c levels in ip dosed C57BL/6-m+/+Leprdb mouse at 8 mg, ip; type: functional, organism-based
[15] = molecular target: T2, Glucagon-like peptide 1 receptor (Rattus norvegicus); test: Agonist activity at rat GLP1 receptor expressed in HEK293 cells assessed as luciferase activity upto 10 uM relative to GLP1; type: functional, cell-based
Mus musculus [16] = test: Suppression of food intake in ip dosed C57BL/6 mouse after 12 hrs; type: functional
Mus musculus [17] = test: Reversal of suppression of food intake in ip dosed C57BL/6 mouse after 12 hrs in presence of exendin; type: functional, organism-based
Mus musculus [18] = species on record: Mus musculus; test: Decrease in fasting insulin in C57BL/6-m+/+Leprdb mouse at 2 mg; type: functional, organism-based
Mus musculus [19] = test: Decrease in HbA1c levels in C57BL/6-m+/+Leprdb mouse at 1 mg, ip; type: functional, organism-based
Mus musculus [20] = test: Suppression of food intake in po dosed C57BL/6 mouse after 2 hrs; type: functional
Mus musculus [21] = species on record: Mus musculus; test: Effect on glucose excursion in C57BL/6-m+/+Leprdb mouse assessed as glucose tolerance normalization at 2 mg; type: functional, organism-based
Mus musculus [22] = species on record: Mus musculus; test: Decrease in fasting insulin in C57BL/6-m+/+Leprdb mouse at 1 mg; type: functional, organism-based
Mus musculus [23] = test: Decrease in HbA1c levels in C57BL/6-m+/+Leprdb mouse at 2 mg, ip; type: functional, organism-based
Mus musculus [24] = species on record: Mus musculus; test: Effect on glycemia in C57BL/6-m+/+Leprdb mouse assessed as fasting glucose normalization at 2 mg; type: functional, organism-based
[25] = molecular target: Glucagon-like peptide 1 receptor (Homo sapiens) (UniProt P43220); test: Activity at human GLP1 receptor expressed in HEK293 cells; type: cell-based
[26] = molecular target: T1, Glucagon-like peptide 1 receptor; test: (§2) Displacement of [125I]GLP1 from rat GLP1 receptor expressed in HEK293 cells; type: cell-based
[27] = Terminal half life in C57BL/6 mouse at 2 mg, ip; type: ADME, organism-based; conditions: in vivo
[28] = Induction of glucose-induced insulin release in Sprague-Dawley rat islets at 100 uM relative to control; type: functional
[29] = molecular target: T2, Glucagon-like peptide 1 receptor (Rattus norvegicus); test: as §1; type: functional, cell-based
[30] = molecular target: T2, Glucagon-like peptide 1 receptor (Rattus norvegicus); test: Agonist activity at rat GLP1 receptor expressed in HEK293 cells assessed as luciferase activity; type: functional, cell-based
[31] = molecular target: T2, Glucagon-like peptide 1 receptor (Rattus norvegicus); test: as §2; type: cell-based

Glucagon-like peptide 1 receptor (Homo sapiens), sequence (P43220 whole entry): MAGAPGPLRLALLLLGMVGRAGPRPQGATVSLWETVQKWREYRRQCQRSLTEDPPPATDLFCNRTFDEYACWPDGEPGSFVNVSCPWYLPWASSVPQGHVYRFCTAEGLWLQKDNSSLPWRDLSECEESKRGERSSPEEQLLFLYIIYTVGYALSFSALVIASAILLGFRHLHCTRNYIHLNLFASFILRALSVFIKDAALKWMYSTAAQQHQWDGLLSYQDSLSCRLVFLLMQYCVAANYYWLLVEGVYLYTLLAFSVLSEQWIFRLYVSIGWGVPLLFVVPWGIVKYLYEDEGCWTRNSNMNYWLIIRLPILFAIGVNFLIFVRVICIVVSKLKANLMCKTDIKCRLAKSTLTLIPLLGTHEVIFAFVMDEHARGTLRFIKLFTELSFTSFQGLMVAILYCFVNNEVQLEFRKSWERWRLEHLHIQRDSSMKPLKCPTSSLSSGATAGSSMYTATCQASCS

For `COc1cc(C2C(NC(=O)c3ccc(NC(=O)OC(C)(C)C)cc3)(C(=O)O)C(c3ccc(OC(=O)c4cccs4)c(OC)c3)C2(NC(=O)c2ccc(NC(=O)OC(C)(C)C)cc2)C(=O)O)ccc1OC(=O)c1cccs1` (stereo not drawn), which Activity (Mus musculus [1]) is on record?
The Activity was 24.9%.

What about the Activity (Mus musculus [2]) of the same compound?
Its Activity is “Active”.

What about the Activity (Mus musculus [3]) of the same compound?
Its Activity is “Active”.

What about the Activity (Mus musculus [4]) of the same compound?
The Activity was “Active”.

And the EC50 [5]?
Its EC50 is 2.73 µM.

What about the Activity (Mus musculus [6]) of the same compound?
Its Activity is “Active”.

And the Activity (Mus musculus [7])?
The Activity was “Non-toxic”.

What about the Activity (Mus musculus [8]) of the same compound?
The Activity was “Active”.

And the “fold change (FC)” value [9]?
The value was 4.5.

And the Activity (HEK293)?
Its Activity is “Non-toxic”.

And the Activity (Mus musculus [10])?
The Activity was 54%.

What about the Activity [11] of the same compound?
The Activity was “Active”.

And the Activity (Mus musculus [12])?
Its Activity is “Active”.

What about the Activity [13] of the same compound?
The Activity was “Active”.

What about the Activity (Mus musculus [14]) of the same compound?
Its Activity is “Active”.

And the Activity [15]?
The Activity was “Active”.

What about the ED50 (Mus musculus [16]) of the same compound?
The ED50 was 1.57 mg.

And the Activity (Mus musculus [17])?
The Activity was “Active”.

What about the Activity (Mus musculus [18]) of the same compound?
The Activity was “Active”.

And the Activity (Mus musculus [19])?
Its Activity is “Active”.

And the ED50 (Mus musculus [20])?
The ED50 was 0.53 mg.

What about the Activity (Mus musculus [21]) of the same compound?
The Activity was “Active”.

What about the Activity (Mus musculus [22]) of the same compound?
The Activity was “Active”.

And the Activity (Mus musculus [23])?
The Activity was “Active”.

And the Activity (Mus musculus [24])?
The Activity was “Active”.

What about the Activity [25] of the same compound?
The Activity was “inactive”.

And the Ki [26]?
The Ki was 1.47 µM.

What about the half-life [27] of the same compound?
Its half-life is 7.5 h.

Which EC50 [5] does the source give for `COc1cc(C2C(NC(=O)c3ccc(NC(=O)C4CCCC4)cc3)(C(=O)O)C(c3ccc(OC(=O)c4cccs4)c(OC)c3)C2(NC(=O)c2ccc(NC(=O)C3CCCC3)cc2)C(=O)O)ccc1OC(=O)c1cccs1` (stereo not drawn) here?
Its EC50 is 1.08 µM.

What about the Activity [11] of the same compound?
The Activity was “Active”.

And the Activity [13]?
Its Activity is “Active”.

What about the Activity [15] of the same compound?
Its Activity is 37%.

What about the “fold change (FC)” value [28] of the same compound?
The value was 2.6.

What about the Activity [25] of the same compound?
The Activity was “inactive”.

And the Ki [26]?
Its Ki is 0.287 µM.

For `CCOc1cc(/C=C2\N=C(c3ccc(NC(C)=O)cc3)OC2=O)ccc1OC(=O)c1cccs1`, which Activity [29] is on record?
Its Activity is “Active”.

And the Activity [30]?
The Activity was “Active”.

What about the Activity [31] of the same compound?
Its Activity is “Active”.
